Data reported in article PMC8329280 (Scientific Reports, 2021).
Converted amounts (≈) assume the structure as drawn. “Also recorded” adds a separate entry of the source. Starred links: 1 amine or outer side, 2 acyl side, 3 side chain; linkers in the order of their positions; H or OH if unused. Positions of bridges follow the written chain, without caps; N, C: chain ends. Non-standard residues stand in square brackets, D forms with d. Residues, ends and D or L forms follow the SMILES beside them. Chains are numbered I, II in the order given. X1 = O=C1CC([*:1])C(=O)N1CCOCCOCCOCCN1C(=O)CC([*:2])C1=O; Dopa = N[C@@H](Cc1ccc(O)c(O)c1)C(=O)O

Assays:
[1] = test system: Citrobacter freundii; type: cell-based
[2] = test system: MRSA; type: cell-based, Staphylococcus aureus
Method: (§1) The L- and D- forms of Ctl and also the corresponding L- and D-forms of the scramble peptides were tested by Atlangram (Nantes, France) against resistant Gram-negative bacteria (Escherichia coli, Klebsiella pneumoniae, Enterobacter cloacae, Enterobacter aerogenes, Serratia marcescens, Morganella morganii, Pseudomonas aeruginosa), MSSA, MRSA and yeast (C. albicans). The MICs were determined according to the CASFM/EUCAST 2018 (Comité de l’Antibiogramme de la Société Française de Microbiologie).

[3] = test system: MSSA; type: cell-based, Staphylococcus aureus
Method: as §1

[4] = test system: Pseudomonas aeruginosa; type: cell-based
Method: as §1

[5] = test system: Serratia marcescens; type: cell-based
Method: as §1

[6] = test system: Morganella morganii; type: cell-based
Method: as §1

[7] = test system: Candida albicans; type: cell-based
Method: as §1

[8] = test system: Escherichia coli; type: cell-based
Method: as §1

[9] = test system: Endoprotease Glu-C from S. aureus V8 (E.C. 3.4.21.19); experiment: endoprotease Glu-C in 50 mM Tris–HCl pH 8.2 or PBS; details: S. aureus V8, 37 °C, up to 18 h
[10] = test system: Endoprotease Glu-C from S. aureus V8 (E.C. 3.4.21.19); experiment: Endoprotease Glu-C in 50 mM Tris–HCl pH 8.2 or PBS; details: S. aureus V8 (enzyme source), 37 °C, up to 18 h
[11] = test system: methicillin sensitive S. aureus (MSSA, strain 49775); type: cell-based, Staphylococcus aureus; details: for MIC100 MSSA: MSSA strain 49775, MHB medium pH 7.4, 24 h at 37 °C, A620 nm, triplicates
Method: (§2) Antibacterial assays were realized to the method previously reported[22],[25]. S. aureus strains were pre-cultured for 20 h in aerobic conditions at 37 °C in Mueller–Hinton Broth (MHB) medium (Becton–Dickinson Microbiology Company, Sparks, USA) (pH 7.4). Bacteria were suspended at absorbance of 0.001 at 620 nm in the MHB medium. Antibacterial activity was tested for 24 h incubation at 37 °C with shaking by measuring the inhibition of bacterial growth. Ten µl of final volumes (10–200 µg/mL) of synthetic peptides were incubated in microtitration plates with 90 µl of a mid-logarithmic phase culture of bacteria, with a starting absorbance of 0.001 at 620 nm. A mixture of Tetracycline (10 mg/L) and Cefotaxime (0.1 mg/L) were used as positive controls. Microbial growth was assessed by the increase of absorbance after 24 h incubation at 37 °C. The A620 nm value of control cultures growing in the absence of peptide and antibiotics was defined as 100% growth. A620 nm value with the antibiotics (Tetracycline and Cefotaxime) was taken as 100% inhibition. Absence of bacterial growth was verified by agar plate spreading. Each assay was performed in triplicates. Data were shown as mean + /− standard deviation of three independent experiments; p < 0.05.

[12] = test system: CD14 cells; experiment: Cytokine release assay, ELISA; type: cell-based, human; details: 24 h, cells from 2 patients
Method: Three types of immune cells were prepared from human monocytes provided from the EFS (Etablissement Français du Sang). Dendritic cells (DC1a), CD14 and macrophages were obtained after treatment of monocytes by cytokines according to the methods previously reported[31],[32] and the identification of the immune cells was validated by using flow cytometry analysis (Fluorescence Activated Cell Sorting, FACS).
(§3) The release of cytokines IL-6, IL-8, IL-10 and TNF-α induced after the treatment of immune cells by Cts was realized by the use of an automated ELISA immunoassay (Immulite One, Siemens la Garenne-Colombe, France) and with the Bio-Plex Multiplex Immunoassay system (Bio-Rad, Marnes-la-Coquette) for the treatment of Human Peripheral Blood Mononuclear Cells (PBMCs) by L-Ctl, D-Ctl, Ctl-C, D-Ctl-C and P3. PBMCs from healthy volunteers were obtained from the blood transfusion centre of Strasbourg (Etablissement Français du Sang, Strasbourg) and isolated by density gradient centrifugation using Lymphoprep (Stemcell Technologies). PMBC were then maintained in AIM V medium (Thermo Fisher Scientific, Waltham, MA, USA) at 37 °C in a 5% CO2 humidified incubator and treated for 24 h with 30 µM of each peptide (L-Ctl, D-Ctl, Ctl-C, D-Ctl-C and P3). Three technical replicates were performed for each condition. Supernatants were then filtered and assessed for cytokine dosage according to the manufacturer’s instructions.

[13] = test system: C. albicans (ATCC 10231TM); experiment: Antimicrobial assay against C. albicans ATCC 10231; type: cell-based, Candida albicans; details: Sabouraud medium, 24 h at 37 °C, OD620nm, lowest concentration inhibiting 100% of growth
Method: Antimicrobial assays against C. albicans (ATCC 10231TM) were realized according to the method previously reported. C. albicans was cultured in Sabouraud medium (Sigma-Aldrich, Saint Louis, USA) supplemented with tetracycline (10 μg/mL) and cefotaxime (10 μg/mL) at 37 °C for 24 h. C. albicans (OD620nm = 0.001) were plated in 96-well plates and treated either with different concentrations of the peptides of interest, and/or with different concentrations of voriconazole (VCZ) (Sigma-Aldrich, Saint Louis, USA). As a positive control, cells were treated with 10 μg/mL VCZ. After 24 h incubation, yeast growth was assessed by optical density OD620nm using a spectrophotometer Multiskan EX Microplate Reader Lab (Thermo Fisher Scientific, Waltham, MA, USA).
The MIC of the antifungal agents is defined as the lowest concentration of drug able to inhibit 100% of the growth of C. albicans.

[14] = test system: Human Peripheral Blood Mononuclear Cells (PBMCs); experiment: Cytokine release assay, Bio-Plex Multiplex Immunoassay; type: cell-based; details: 30 µM, 24 h, IL-6, IL-8, IL-10 pointed out, two healthy volunteers
From the text: as §3

[15] = test system: methicillin resistant S. aureus (MRSA, strain S1); experiment: Antibacterial growth inhibition assay, MRSA strain S1; type: cell-based, Staphylococcus aureus; details: MHB medium pH 7.4, 24 h at 37 °C, A620 nm, triplicates
Method: as §2

[16] = test system: proteases produced by Staphylococcus aureus; experiment: proteases produced by Staphylococcus aureus; details: cited from earlier work

CSCC[C@@H](NC(=O)[C@H](N)Cc1ccccc1)C(=O)N[C@H](CCCNC(=N)N)C(=O)N[C@H](CC(C)C)C(=O)N[C@H](CCCNC(=N)N)C(=O)N[C@H](Cc1ccc(O)cc1)C(=O)N[C@H](CCCNC(=N)N)C(=O)N[C@H](CO)C(=O)N[C@H](CO)C(=O)N[C@H](C)C(=O)N[C@H](Cc1ccccc1)C(=O)NCC(=O)NCC(=O)N[C@H](CCCNC(=N)N)C(=O)N[C@H](CCCNC(=N)N)C(=O)O [Control D, reference compound] (H-[dF][dM][dR][dL][dR][dY][dR][dS][dS][dA][dF]GG[dR][dR]-OH)
MIC [1]: 128 µg/mL (≈ 68.8 µM) | MIC [2]: > 128 µg/mL | MIC [3]: > 128 µg/mL | MIC [4]: > 128 µg/mL | MIC [5]: > 128 µg/mL | MIC [6]: > 128 µg/mL | MIC [7]: 512 µg/mL (≈ 275 µM)

CSCC[C@@H](NC(=O)[C@@H](CO)NC(=O)[C@H](N)CCCNC(=N)N)C(=O)N[C@H](CCCNC(=N)N)C(=O)N[C@H](CC(C)C)C(=O)N[C@H](CO)C(=O)N[C@H](Cc1ccccc1)C(=O)N[C@H](CCCNC(=N)N)C(=O)N[C@H](C)C(=O)N[C@H](CCCNC(=N)N)C(=O)NCC(=O)N[C@H](Cc1ccc(O)cc1)C(=O)NCC(=O)N[C@H](Cc1ccccc1)C(=O)N[C@H](CCCNC(=N)N)C(=O)O [D-Ctl] (H-[dR][dS][dM][dR][dL][dS][dF][dR][dA][dR]G[dY]G[dF][dR]-OH)
MIC [2]: 64 µg/mL (≈ 34.4 µM) | MIC [6]: > 128 µg/mL | MIC against several strains of E. coli [8]: 8 to 32 µg/mL | MIC [7]: 256 µg/mL (≈ 138 µM)

TLRGGE-RSMRLSFRARGYGFR
cleaved bond [9]: R-A, major | fragment found [9]: TLRGGE, major | cleaved bond [10]: R-A, major

RSMRLSFRARGYGFRMal-(12PEG)-MalRFGYGRARFSLRMSR [Peptide P4, dimeric form of Ctl with spacer of 12 PEG]
MIC100 MSSA [11]: > 100 µM

RSMRLSFRARGYGFRMal-(46PEG)-MalRFGYGRARFSLRMSR [Peptide P6, dimeric form of Ctl with spacer of 46 PEG]
MIC100 MSSA [11]: > 100 µM

CSCC[C@@H](NC(=O)[C@@H](CO)NC(=O)[C@@H](CCCNC(=N)N)NC(=O)[C@H](CCC(=O)O)NC(=O)CNC(=O)CNC(=O)[C@H](CCCNC(=N)N)NC(=O)[C@H](CC(C)C)NC(=O)[C@@H](NC(=O)[C@H](Cc1ccc(O)c(O)c1)NC(=O)[C@H](CCCCN)NC(=O)[C@H](Cc1ccc(O)c(O)c1)NC(=O)[C@H](CCCCN)NC(=O)[C@@H](N)Cc1ccc(O)c(O)c1)[C@@H](C)O)C(=O)N[C@H](CCCNC(=N)N)C(=O)N[C@H](CC(C)C)C(=O)N[C@H](CO)C(=O)N[C@H](Cc1ccccc1)C(=O)N[C@H](CCCNC(=N)N)C(=O)N[C@H](C)C(=O)N[C@H](CCCNC(=N)N)C(=O)NCC(=O)N[C@H](Cc1ccc(O)cc1)C(=O)NCC(=O)N[C@H](Cc1ccccc1)C(=O)N[C@H](CCCNC(=N)N)C(=O)O [DOPA5T-(D)Ctl] (H-[Dopa]K[Dopa]K[Dopa]TLRGGE[dR][dS][dM][dR][dL][dS][dF][dR][dA][dR]G[dY]G[dF][dR]-OH)
IC50 ([11]; methicillin sensitive (, strain 49775, 24 h)): 35 µM

Catestatin [Cts]
production of IL-6 ([12]; 15 µM, cell type not given): not modified | production of IL-10 ([12]; 15 µM, cell type not given): not modified | production of TNF-α ([12]; 15 µM, cell type not given): not modified | decrease of the amount of IL-8 released versus controls (without peptide) ([12]; CD14, 15 µM): 26%

CSCC[C@H](NC(=O)[C@H](CO)NC(=O)[C@@H](N)CCCNC(=N)N)C(=O)N[C@@H](CCCNC(=N)N)C(=O)N[C@@H](CC(C)C)C(=O)N[C@@H](CO)C(=O)N[C@@H](Cc1ccccc1)C(=O)N[C@@H](CCCNC(=N)N)C(=O)N[C@@H](C)C(=O)N[C@@H](CCCNC(=N)N)C(=O)NCC(=O)N[C@@H](Cc1ccc(O)cc1)C(=O)NCC(=O)N[C@@H](Cc1ccccc1)C(=O)N[C@@H](CCCNC(=N)N)C(=O)N[C@@H](CSC1CC(=O)N(CCOCCOCCOCCN2C(=O)CC(SC[C@H](NC(=O)[C@H](CCCNC(=N)N)NC(=O)[C@H](Cc3ccccc3)NC(=O)CNC(=O)[C@H](Cc3ccc(O)cc3)NC(=O)CNC(=O)[C@H](CCCNC(=N)N)NC(=O)[C@H](C)NC(=O)[C@H](CCCNC(=N)N)NC(=O)[C@H](Cc3ccccc3)NC(=O)[C@H](CO)NC(=O)[C@H](CC(C)C)NC(=O)[C@H](CCCNC(=N)N)NC(=O)[C@H](CCSC)NC(=O)[C@H](CO)NC(=O)[C@@H](N)CCCNC(=N)N)C(=O)O)C2=O)C1=O)C(=O)O (stereo partly drawn) [Peptide P3] (I: H-RSMRLSFRARGYGFRC-OH / II: H-RSMRLSFRARGYGFRC-OH; linker I:16-II:16 via X1; N-terminus and C-terminus assumed)
MIC100 C. albicans [13]: 20 µM (≈ 85.6 µg/mL) | release of the tested cytokines from PBMCs [14]: unable to induce te release of the tested cytokines; also recorded: unable to release significantly the tested cytokines | MIC100 MRSA [15]: 50 µM (≈ 214 µg/mL) | MIC100 MSSA [11]: 30 µM (≈ 128 µg/mL)

RSMRLSFRARGYGFR
not cleaved [16]: resistant to degradation by the proteases produced by Staphylococcus aureus

DOPA-K-DOPA-K-DOPA-TLRGGE-RSMRLSFRARGYGFR
cleaved bond [9]: E-R, major

RSMRLSFRARGYGFRMal-(16PEG)-MalRFGYGRARFSLRMSR [Peptide P5, dimeric form of Ctl with spacer of 16 PEG]
MIC100 C. albicans [13]: 50 µM | MIC100 MRSA [15]: > 100 µM | MIC100 MSSA [11]: > 100 µM
